This is an account of results in patent publication US6291470A, “Indole derivatives process for producing the same and medicinal uses of the same” (Toray Industries, Inc., priority 1992, dated 2001).

In one experiment the target is T1, δ-opioid receptor (Mus musculus, UniProt P32300).
T1 construct: from tissue; host or cells: vas deferens of male ddy mice
Briefly: δ-opioid antagonist activity against DPDPE in mouse vas deferens (MVD). As to conditions: for Ratio of IC50 Values: DPDPE IC50 with/without 100 nM test compound; for Ratio of IC50 Values / Kb: 20 min; for Kb: against DPDPE, test compound 100 nM, read-out: Ke. Summed up: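 Vas deferens from male ddy mice in Krebs-Henseleit at 37 °C (5% CO2/95% O2), field-stimulated at 0.1 Hz, 5.0 ms, isometric contraction recorded. IC50 dose ratio, Ke and Schild pA2 derived.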

For experiment [1], the system named is delayed type hypersensitivity. Briefly: Mouse Delayed Type Hypersensitivity Reaction Suppression Test-3 (administration into cerebral ventricles). It is filed as in vivo. From the text:
(§1) BALB/c mice (male, 7 weeks old) were used, and each group consisted of 4-5 mice. Spleen cells (1×10^7) obtained from a donor mouse (C57BL/6) was subcutaneously administered to sensitize the mice. On Day 7 from the sensitization, the spleen cells (5×10^6) of the donor were subcutaneously administered on the right footpad and spleen cells (5×10^6) obtained from a mouse of the same strain as the recipient mice were subcutaneously administered on the left footpad. Twenty four hours later, the thicknesses of the right and left footpads were measured with a dial thickness gage, and the difference in thicknesses of the right and left footpads before the induction of the reaction and 24 hours after the induction of the reaction was employed as the index of the degree of the reaction.
The test compound was dissolved in water and 5×10^-8 mol/mouse was administered into cerebral ventricles. In the control group, water alone was administered similarly. The dose was 5 μl/mouse in both the study groups and the control group.

In experiment [2] the test system is delayed type hypersensitivity. The experiment in a line: Delayed type hypersensitivity suppression test using mice from which adrenal glands have been removed. In kind it is in vivo, mouse. As to conditions: subcutaneous, totally 8 days.
Source text: The mechanism of immunosuppression of the compound of the present invention was examined using delayed type hypersensitivity suppression test using mice from which adrenal glands have been removed.
as §1
The adrenectomy was performed by cutting the back of each recipient mouse under anesthesia with ether before the sensitization and removing the adrenal gland. Sham operation was performed by cutting the back of each recipient mouse but not removing the adrenal gland.
The test compound was dissolved in 10% DMSO-water and was subcutaneously administered everyday from the day of sensitization to the day of induction of the reaction, totally 8 days. In the control group, 10% DMSO-water alone was administered in the same manner. The volume of administration was 10 ml/kg in both study groups and in the control groups.

For experiment [3], the system named is delayed type hypersensitivity. The experiment in a line: Mouse Delayed Type Hypersensitivity Reaction Suppression Test-2 (donor spleen cells, subcutaneous administration). It is filed as in vivo. As to conditions: C57BL/6 spleen cells; subcutaneous everyday from day of sensitization, totally 8 days; BALB/c.
Source text: as §1, with “cells (1×10^7 )” for “cells (1×10^7)”, “right hing leg” for “right footpad”, “same line” for “same strain”
The test compound was dissolved in 10% DMSO-water and was subcutaneously administered everyday from the day of sensitization to the day of induction of the reaction, totally 8 days. In the control group, 10% DMSO-water alone was administered in the same manner. The volume of administration was 10 ml/kg in both study groups and in the control group. Delayed Type Hypersensitivity Reaction=(thickness of right foodpad after induction-thickness of right footpad before induction)-(thickness of […] before induction) [formula]
wherein C means delayed type hypersensitivity reaction of the group to which the test compound was administered and D means the delayed type hypersensitivity reaction of the group to which vehicle was administered.

For another experiment, the system named is contact dermatitis. The experiment in a line: Mouse Contact Dermatitis Suppression Test (DNFB). It is filed as in vivo. As to conditions: into cerebral ventricle 30 minutes before induction, BALB/c. The method, then:
BALB/c mice (male, 13-15 weeks old) were used, and each group consisted of 4 mice. In mixed liquid of acetone: olive oil=4:[…] (DNFB) was dissolved. On Day 0 and Day 1, 0.1% DNFB (50μ) was sensitized to the clipped skin of the abdominal wall, so as to sensitize the mouse. On day 5, 0.15% DNFB (25 μl/ear) was challenged on closal side of each ear love of each mouse, so as to induce the reaction. The compound was administered into cerebral ventricle 30 minutes before the induction.
The contact dermatitis was detected in terms of the increase in the thicknesses of the ears. The thicknesses of the ears were measured before and 24 hours after the challenge by using a dial thickness gage. One ear was taken as n=1, and the increase in the thickness of the ear was used as an index for detecting the contact dermatitis. Contact Dermatitis=(thickness of the ear after challenge)-(thickness of the ear before challenge) [formula]
wherein E means the contact dermatitis of the group to which the compound was administered, and F means the contact dermatitis of the group to which the vehicle was administered.

The test system of experiment [4] is delayed type hypersensitivity. Briefly: Mouse Delayed Type Hypersensitivity Reaction Suppression Test-1 (SRBC). In kind it is in vivo. Conditions: SRBC sensitization; subcutaneous, everyday from 3 days before sensitization, totally 8 days; BALB/c. The procedure: BALB/c mice (male, 7 weeks old) were used. The mice were classified into groups depending on the body weight, each group consisting of 7-8 mice. Each of the mice was sensitized by subcutaneously administering […] of SRBC (8×10^8 in saline) on the heel of the left hing leg. On day 4 from the sensitization, 25 μl of SRBC (8×10^9 in saline) was subcutaneously administered on the right footpad so as to induce delayed type hypersensitivity. The difference in the thicknesses of the right footpad before the induction of reaction and 24 hours after the induction of the reaction was employed as an index of the degree of the reaction.
The test compound was dissolved in 10% DMSO-water and was subcutaneously administered everyday from 3 days before the sensitization to the day of induction of the reaction, totally 8 days. In the control group, 10% DMSO-water alone was administered in the same manner. The volume of administration was 5 ml/kg in both study groups and in the control group.
The % suppression of the delayed type hypersensitivity reaction was calculated according to the following equation: [formula]
wherein A means the difference in the thickness of the right hind leg before and after the reaction in control group, and B means the difference in the thickness of the right hind leg before and after the reaction in the group to which the test compound was administered.

In another experiment the test system is brain cells. As to conditions: Kokai No. 3-218313; cited from earlier work.
In experiment [5] the test system is Cerebral cortex nerve cells. Briefly: Brain cell-protecting action, MTT method. It is filed as cell-based, rat. As to conditions: study group / control group, 570 nm, 10 μM, 3 days culture. The method, then:
The brain cell-protecting action was examined by MTT [3-(4,5-dimethylthiazol-2-yl)-2,5-diphenyltetrazolium bromide] method. MTT yields a dark blue formazan compound by mitochondria in living cells. This compound was dissolved in isopropanol and absorbance at 570 nm was measured, thereby measuring the number of living cells.
Cerebral cortex nerve cells of fetal rats of 17 days old were placed in wells of a 96-well plate at a population density of 1×10^5 cells/cm^2. Then 10 μM of a test compound was added and the cells were cultured in 200 μl of mixed medium of D-MEM/F.12 (1:1) for 3 days (37° C., 5%CO2). In a control group, the medium alone was added Then […] of MTT solution in PBS (6mg/ml) was added and the mixture was allowed to react for 3 hours (37° C., 5% CO2). After removing the culture medium, 100 μl of isopropanol was added and the absorbance was measured.
The ratio of the absorbances of the study group and the control group was employed as an index of brain cell-protecting action.
In general terms: Tetrazolium assays rely on reduction of a dye to a coloured formazan, in cell work by metabolically active cells.

Each structure is given as a SMILES string.

T1 sequence (P32300 whole entry): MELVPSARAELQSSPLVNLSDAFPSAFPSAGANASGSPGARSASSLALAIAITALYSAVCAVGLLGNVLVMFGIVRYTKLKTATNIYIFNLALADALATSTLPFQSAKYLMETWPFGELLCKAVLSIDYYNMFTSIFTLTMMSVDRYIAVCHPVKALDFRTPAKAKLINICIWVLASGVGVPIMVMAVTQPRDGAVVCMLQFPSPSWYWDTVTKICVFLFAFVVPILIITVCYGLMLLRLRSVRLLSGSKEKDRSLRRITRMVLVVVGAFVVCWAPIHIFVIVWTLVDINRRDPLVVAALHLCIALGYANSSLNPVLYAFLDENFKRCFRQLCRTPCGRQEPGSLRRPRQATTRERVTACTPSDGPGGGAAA

Take `Oc1ccc2c3c1O[C@H]1c4[nH]c5c6c(ccc5c4C[C@@]4(O)[C@@H](C2)N(CC2CC2)CC[C@]314)CCCC6` [Compound 2, 17-cyclopropylmethyl-3,14β-dihydroxy-4,5α-epoxy-6,7-didehydromorphinano[6,7-b]cyclohexeno[g]indole]: on δ-opioid receptor, the “Ratio of IC50 Values” is reported as 22.1. Further, the Kb at δ-opioid receptor was determined as 4.74 nM. Further, the “% Suppression” value in experiment [1] (5×10^-8 mol/mouse into cerebral ventricles, BALB/c) is recorded as 83%; in experiment [2] (Adrenectomy), 60%; in experiment [2] (Sham Operation), 60%; in experiment [3], 60%. In experiment [1] (into cerebral ventricles, vs NTI), the “suppressive effect relative to NTI (in words)” value is on record as “far stronger than NTI”. Further, in the experiment with contact dermatitis, the “suppression of contact dermatitis” value was found to be 44%.
As for `CSc1ccc2c3c([nH]c2c1)[C@@H]1Oc2c(O)ccc4c2[C@@]12CCN(CC1CC1)[C@H](C4)[C@]2(O)C3` [Compound 43, 17-cyclopropylmethyl-6,7-didehydro-4,5α-epoxy-3,14β-dihydroxy-6'-methylthio-6,7-2',3'-indolomorphinan], on δ-opioid receptor, the “Ratio of IC50 Values” stood at 168 and the Kb turned out to be 0.6 nM. Moreover, the “% Suppression” value in experiment [3] is reported as 27%. In experiment [4], the “% Suppression” value is on record as 26%.
As to `Oc1ccc2c3c1O[C@H]1c4[nH]c5c(c4C[C@@]4(O)[C@@H](C2)N(CC2CC2)CC[C@]314)C[C@@]1(O)[C@H]2Cc3ccc(O)c4c3[C@@]1(CCN2CC1CC1)[C@H]5O4` [nor-BNI, reference compound], in the experiment with brain cells, the “brain cell-protecting action (in words)” value was “has brain cell-protecting action”. The “Ratio of Absorbances” value in experiment [5] amounted to 7.60.
Regarding `O=[N+]([O-])c1cccc2c3c([nH]c12)[C@@H]1Oc2c(O)ccc4c2[C@@]12CCN(CC1CC1)[C@H](C4)[C@]2(O)C3` [Compound 136, 17-cyclopropylmethyl-6,7-didehydro-4,5α-epoxy-3,14β-dihydroxy-7'-nitro-6,7-2',3'-indolomorphinan], at δ-opioid receptor, the “Ratio of IC50 Values” is reported as 192 and the Kb came to 0.52 nM. Besides, the “% Suppression” value in experiment [4] worked out at 18%.
With `CCOC(=O)c1cccc2c3c([nH]c12)[C@@H]1Oc2c(O)ccc4c2[C@@]12CCN(CC1CC1)[C@H](C4)[C@]2(O)C3` [Compound 119, 17-cyclopropylmethyl-6,7-didehydro-4,5α-epoxy-3,14β-dihydroxy-7'-ethoxycarbonyl-6,7-2',3'indolomorphinan], at δ-opioid receptor, the “δ-antagonist activity relative to NTI (times that of NTI)” value was 1.3-1.6 times, the “Ratio of IC50 Values” is listed as 635 and the Kb was found to be 0.16 nM. Further, the “% Suppression” value in experiment [3] was 31%. The “% Suppression” value in experiment [4] was 12%.
In the case of `CSc1cccc2c3c([nH]c12)[C@@H]1Oc2c(O)ccc4c2[C@@]12CCN(CC1CC1)[C@H](C4)[C@]2(O)C3` [Compound 121, 17-cyclopropylmethyl-6,7-didehydro-4,5α-epoxy-3,14β-dihydroxy-7'-methylthio-6,7-2',3'-indolomorphinan], at δ-opioid receptor, the “Ratio of IC50 Values” was 33.6 and the Kb is 3.07 nM. Further, in experiment [4], the “% Suppression” value was found to be 20%.
